pKi: −log10 of the molar value.
Experiments:
saFabI [1] = target: T1, saFabI (Staphylococcus aureus, UniProt Q6GI75); assay: ThermoFluor thermal shift; type: binding; conditions: Tm of free enzyme 62.6
T1 sequence (Q6GI75 1-256): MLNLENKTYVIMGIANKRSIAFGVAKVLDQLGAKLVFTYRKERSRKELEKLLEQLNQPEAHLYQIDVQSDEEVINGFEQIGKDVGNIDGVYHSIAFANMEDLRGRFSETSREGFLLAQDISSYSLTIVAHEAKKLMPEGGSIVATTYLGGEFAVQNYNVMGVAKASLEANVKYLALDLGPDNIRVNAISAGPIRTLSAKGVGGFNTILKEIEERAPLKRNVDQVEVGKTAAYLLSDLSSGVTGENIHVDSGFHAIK

saFabI [2] = target: T1, saFabI; assay: X-ray crystal structure; type: binding; conditions: ternary complexes with PT12, PT400, PT404, PT449 or MUT37307
ecFabI = target: T2, ecFabI (Escherichia coli, UniProt P0AEK4); assay: X-ray crystal structure; type: binding
T2 sequence (P0AEK4 1-262): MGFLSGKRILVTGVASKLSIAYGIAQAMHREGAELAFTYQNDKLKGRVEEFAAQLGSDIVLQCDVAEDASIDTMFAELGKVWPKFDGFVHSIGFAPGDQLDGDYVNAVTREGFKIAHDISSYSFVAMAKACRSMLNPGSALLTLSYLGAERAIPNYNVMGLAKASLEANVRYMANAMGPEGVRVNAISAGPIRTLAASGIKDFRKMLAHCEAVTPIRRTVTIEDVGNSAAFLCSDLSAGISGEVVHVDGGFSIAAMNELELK

saFabI [3] = target: T1, saFabI; assay: single-concentration progress curve analysis; type: biochemical

Cc1c(N)cccc1Cn1ccc(OCCc2cccs2)cc1=O [CG400549]
Wild-type saFabI (saFabI [1]; ternary complex with NADPH): 71.2 °C

NC(=O)c1ccc[n+]([C@@H]2O[C@H](COP(=O)(O)OP(=O)(O)OC[C@H]3O[C@@H](n4cnc5c(N)ncnc54)[C@H](OP(=O)(O)O)[C@@H]3O)[C@@H](O)[C@H]2O)c1 [NADP^+]
X-ray crystal structure (saFabI [2]): saFabI in complex with NADP^+ and PT12, PT400, PT404, PT449, or MUT37307

NC(=O)c1ccc[n+]([C@@H]2O[C@H](COP(=O)(O)OP(=O)(O)OC[C@H]3O[C@@H](n4cnc5c(N)ncnc54)[C@H](O)[C@@H]3O)[C@@H](O)[C@H]2O)c1 [NAD^+]
X-ray crystal structure (ecFabI; ternary complex with PT449): ecFabI in complex with NAD^+ and PT449 have been deposited in the PDB

CCCCCCc1ccc(Oc2ccc([N+](=O)[O-])cc2)c(O)c1 [PT12]
pKi (saFabI [3]): 10.30

CCCCCCc1ccc(Oc2ccccc2C#N)c(O)c1 [PT119]
Wild-type saFabI (saFabI [1]; ternary complex with NADP+): 70.4 °C

CCc1cc(O)c(Oc2ccc([N+](=O)[O-])cc2Cl)cc1F [PT404]
pKi (saFabI [3]): 9.12

N#Cc1cc(Br)ccc1Oc1ccc(Cl)cc1O [PT449]
X-ray crystal structure (ecFabI; ternary complex with NAD+): ecFabI in complex with NAD^+ and PT449 have been deposited in the PDB

From paper PMC4382590 (Biochemistry, 2015)
